# Experimental data: US9765018B2, “IDO inhibitors” (BRISTOL-MYERS SQUIBB COMPANY, priority 2013, dated 2017)
# Key:
# Human IDO1 = Human IDO1 (Homo sapiens (Human), UniProt P14902); assay: IDO Kynurenine Assay with Human IDO1/HEK293 Cells; format: cell-based; settings: HEK293 cells with human IDO1; read-out: HEK human IDO-1 (IC50)
# Protocol: IDO Kynurenine Assay with Human IDO1/HEK293 Cells
# Human IDO1/HEK293 cells were seeded at 10,000 cells per 50 uL per well with RPMI/phenol red free media contains 10% FBS in a 384-well black wall clear bottom tissue culture plate (Matrix Technologies LLC) 125 nL of certain concentration of compound was then added to each well using ECHO liquid handling systems. The cells were incubated for 20 hours in 37° C. incubator with 5% CO2.
# The compound treatments were stopped by adding Trichloroacetic Acid (Sigma-Aldrich) to a final concentration at 0.2%. The cell plate was further incubated at 50° C. for 30 minute. The equal volume supernatant (20 uL) and 0.2% (w/v) Ehrlich reagent (4-dimethylaminobenzaldehyde, Sigma-Aldrich) in glacial acetic acid were mixed in a new clear bottom 384-well plate. This plate was then incubated at room temperature for 30 minute. The absorbance at 490 nm was measured on Envision plate reader.
# IDO [1] = molecular target: T1, IDO (Homo sapiens (Human), UniProt P14902); assay: Kynurenine assay in IFN-γ-stimulated Hela cells; format: cell-based; settings: 20 h, read-out: Hela Kyurenine (IC50)
# T1 sequence (P14902 whole entry): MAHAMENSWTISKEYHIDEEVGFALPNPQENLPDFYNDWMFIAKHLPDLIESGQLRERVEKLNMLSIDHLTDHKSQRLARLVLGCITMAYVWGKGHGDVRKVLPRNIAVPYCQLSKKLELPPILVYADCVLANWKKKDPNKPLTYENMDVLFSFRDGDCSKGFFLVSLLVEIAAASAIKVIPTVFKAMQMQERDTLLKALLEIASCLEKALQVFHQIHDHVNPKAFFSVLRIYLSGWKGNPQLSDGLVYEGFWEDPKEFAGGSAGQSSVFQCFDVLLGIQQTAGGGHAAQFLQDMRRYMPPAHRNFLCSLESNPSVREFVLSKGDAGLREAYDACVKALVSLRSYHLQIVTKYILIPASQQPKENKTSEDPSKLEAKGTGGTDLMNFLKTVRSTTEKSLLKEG
# In short: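 Kynurenine in supernatant is read at 490 nm after Ehrlich reagent (10 min RT), following TCA stop and 30 min at 50° C hydrolysis. Before that, Hela cells in phenol red-free RPMI/10% FBS were co-treated 20 h at 37° C with 100 ng/mL IFN-γ and compound (30 μM top, 3-fold series to 1.5 nM).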
# IDO [2] = molecular target: T1, IDO; assay: LLE_IDO_ABS_DR (IDO assay, method not described)
# Human IDO1, sequence (P14902 whole entry): as above
SMILES,IC50 (Human IDO1) [nM],IC50 (IDO [1]) [nM],IC50 (IDO [2]) [nM]
"Cc1ccc(NC(=O)Nc2cc(-c3ccc(Cl)c(C(=O)O)c3)ccc2Oc2ccccc2C(C)(C)C)cc1 [Example 1, 4′-(2-tert-Butylphenoxy)-4-chloro-3′-(3-p-tolylureido)biphenyl-3-carboxylic acid]",6180,2420,–
"COc1ccccc1Oc1ccc(-c2ccc(OC)c(C(=O)O)c2)cc1NC(=O)Nc1ccc(C)cc1 [Example 69, 4-methoxy-4′-(2-methoxyphenoxy)-3′-(3-p-tolylureido)biphenyl-3-carboxylic acid]",6190,2090,–
"COc1ccc(-c2ccc(Oc3cccc4c3OC(C)(C)C4)c(NC(=O)Nc3ccc(C)cc3)c2)cc1C(=O)O [Example 135, 4′-(2,2-dimethyl-2,3-dihydrobenzofuran-7-yloxy)-4-methoxy-3′-(3-p-tolylureido)biphenyl-3-carboxylic acid]",5170,2240,–
"Cc1ccccc1NC(=O)Nc1cc(-c2cccc(F)c2C(=O)O)ccc1Oc1ccccc1C(C)(C)C [Example 175, 4′-(2-tert-butylphenoxy)-3-fluoro-3′-(3-o-tolylureido)biphenyl-2-carboxylic acid]",–,1480,2580
"Cc1ccc(NC(=O)Nc2cc(-c3ccc(C(F)(F)F)cc3C(=O)O)ccc2Oc2ccccc2C(C)(C)C)cc1 [Example 177, 4′-(2-tert-butylphenoxy)-3′-(3-p-tolylureido)-4-(trifluoromethyl)biphenyl-2-carboxylic acid]",–,200,420
"Cc1ccc(NC(=O)Nc2cc(-c3ccc(C(=O)O)nc3)ccc2Oc2ccccc2C(C)(C)C)cc1 [Example 178, 5-(4-(2-tert-butylphenoxy)-3-(3-p-tolylureido)phenyl)picolinic acid]",–,890,1740
"CC(C)(C)c1ccccc1Oc1ccc(-c2ccccc2-c2nnn[nH]2)cc1NC(=O)Nc1ccccc1 [Example 180, 1-(4-(2-tert-butylphenoxy)-2′-(1H-tetrazol-5-yl)biphenyl-3-yl)-3-phenylurea]",–,150,270
"Cc1ccccc1NC(=O)Nc1cc(-c2ccccc2-c2nnn[nH]2)ccc1Oc1ccccc1C(C)(C)C [Example 181, 1-(4-(2-tert-butylphenoxy)-2′-(1H-tetrazol-5-yl)biphenyl-3-yl)-3-o-tolylurea]",–,90,740
"Cc1ccc(NC(=O)Nc2cc(-c3ccccc3-c3nnn[nH]3)ccc2Oc2cccc3c2CCCC3)cc1 [Example 185, 1-(4-(5,6,7,8-tetrahydronaphthalen-1-yloxy)-2′-(1H-tetrazol-5-yl)biphenyl-3-yl)-3-p-tolylurea]",–,160,680
"Cc1ccccc1NC(=O)Nc1cc(-c2ccccc2-c2nnn[nH]2)ccc1Oc1cccc2c1CCCC2 [Example 187, 1-(4-(5,6,7,8-tetrahydronaphthalen-1-yloxy)-2′-(1H-tetrazol-5-yl)biphenyl-3-yl)-3-o-tolylurea]",–,860,2330
"O=C(Nc1ccccc1F)Nc1cc(-c2ccccc2-c2nnn[nH]2)ccc1Oc1cccc2c1CCCC2 [Example 188, 1-(2-fluorophenyl)-3-(4-(5,6,7,8-tetrahydronaphthalen-1-yloxy)-2′-(1H-tetrazol-5-yl)biphenyl-3-yl)urea]",–,870,1830
"O=C(Nc1ccc(Cl)cc1)Nc1cc(-c2ccccc2-c2nnn[nH]2)ccc1Oc1cccc2c1CCCC2 [Example 189, 1-(4-chlorophenyl)-3-(4-(5,6,7,8-tetrahydronaphthalen-1-yloxy)-2′-(1H-tetrazol-5-yl)biphenyl-3-yl)urea]",–,360,1240
"CC(C)(C)c1ccccc1Oc1ccc(-c2ccccc2-c2nnn[nH]2)cc1NC(=O)Nc1ccccc1F [Example 190, 1-(4-(2-tert-butylphenoxy)-2′-(1H-tetrazol-5-yl)biphenyl-3-yl)-3-(2-fluorophenyl)urea]",–,170,450
"CCCCNC(=O)Nc1cc(-c2ccccc2-c2nnn[nH]2)ccc1Oc1ccccc1C(C)(C)C [Example 191, 1-butyl-3-(4-(2-tert-butylphenoxy)-2′-(1H-tetrazol-5-yl)biphenyl-3-yl)urea]",–,340,1210
"COc1ccc(-c2ccc(Oc3ccccc3C(C)(C)C)c(NC(=O)Nc3ccccc3Cl)c2)c(-c2nnn[nH]2)c1 [Example 192, 1-(4-(2-tert-butylphenoxy)-4′-methoxy-2′-(1H-tetrazol-5-yl)biphenyl-3-yl)-3-(2-chlorophenyl)urea]",–,370,1440
"COc1ccc(-c2ccc(Oc3ccccc3C(C)(C)C)c(NC(=O)Nc3ccccc3C)c2)c(-c2nnn[nH]2)c1 [Example 193, 1-(4-(2-tert-butylphenoxy)-4′-methoxy-2′-(1H-tetrazol-5-yl)biphenyl-3-yl)-3-o-tolylurea]",–,250,1160
"Cc1cccc(NC(=O)Nc2cc(-c3ccc(C(=O)O)cc3)ccc2Oc2ccccc2C(C)(C)C)c1 [Example 201, 4′-(2-tert-butylphenoxy)-3′-(3-m-tolylureido) biphenyl-4-carboxylic acid]",–,780,8150
"O=C(Nc1ccc(Cl)cc1)Nc1cc(-c2ccc(C(=O)O)c(Cl)c2)ccc1Oc1ccccc1C(F)(F)F [Example 206, 3-chloro-3′-(3-(4-chlorophenyl)ureido)-4′-(2-(trifluoromethyl)phenoxy)biphenyl-4-carboxylic acid]",–,850,3350
"Cc1cccc(NC(=O)Nc2cc(-c3ccc(C(=O)O)c(Cl)c3)ccc2Oc2ccccc2C(C)(C)C)c1 [Example 213, 4′-(2-tert-butylphenoxy)-3-chloro-3′-(3-m-tolylureido) biphenyl-4-carboxylic acid]",–,930,2560
"CC(C)(C)c1ccccc1Oc1ccc(-c2ccc(C(=O)O)c(Cl)c2)cc1NC(=O)Nc1ccccc1Cl [Example 215, 4′-(2-tert-butylphenoxy)-3-chloro-3′-(3-(2-chlorophenyl)ureido)biphenyl-4-carboxylic acid]",–,300,1830

# Next, values leading:
IC50 (Human IDO1) [nM],IC50 (IDO [1]) [nM],IC50 (IDO [2]) [nM],SMILES
7500,2640,–,"CC(C)(C)c1ccccc1Oc1ccc(-c2cccc(C(=O)O)c2)cc1NC(=O)Nc1ccc(OC(F)F)cc1 [Example 223, 4′-(2-tert-butylphenoxy)-3′-(3-(4-(difluoromethoxy)phenyl)ureido) biphenyl-3-carboxylic acid]"
7500,1020,–,"Cc1ccccc1NC(=O)Nc1cc(-c2cccc(C(=O)O)c2)ccc1Oc1ccccc1C(C)(C)C [Example 224, 4′-(2-tert-butylphenoxy)-3′-(3-o-tolylureido) biphenyl-3-carboxylic acid]"
9190,790,–,"Cc1ccc(NC(=O)Nc2cc(-c3cccc(C(=O)O)c3)ccc2Oc2ccccc2C(C)(C)C)cc1 [Example 226, 4′-(2-tert-butylphenoxy)-3′-(3-p-tolylureido) biphenyl-3-carboxylic acid]"
–,930,10000,"COc1ccccc1NC(=O)Nc1cc(-c2cccc(C(=O)O)c2)ccc1Oc1ccccc1C(C)(C)C [Example 227, 4′-(2-tert-butylphenoxy)-3′-(3-(2-methoxyphenyl)ureido)biphenyl-3-carboxylic acid]"
7500,1890,–,"COc1cccc(NC(=O)Nc2cc(-c3cccc(C(=O)O)c3)ccc2Oc2ccccc2C(C)(C)C)c1 [Example 229, 4′-(2-tert-butylphenoxy)-3′-(3-(3-methoxyphenyl)ureido)biphenyl-3-carboxylic acid]"
7500,1810,–,"COc1ccc(NC(=O)Nc2cc(-c3cccc(C(=O)O)c3)ccc2Oc2ccccc2C(C)(C)C)cc1 [Example 230, 4′-(2-tert-butylphenoxy)-3′-(3-(4-methoxyphenyl)ureido)biphenyl-3-carboxylic acid]"
–,440,10000,"Cc1ccccc1NC(=O)Nc1cc(-c2cc(Cl)cc(C(=O)O)c2)ccc1Oc1ccccc1C(C)(C)C [Example 238, 4′-(2-tert-butylphenoxy)-5-chloro-3′-(3-o-tolylureido) biphenyl-3-carboxylic acid]"
–,700,3940,"Cc1ccc(NC(=O)Nc2cc(-c3cc(Cl)cc(C(=O)O)c3)ccc2Oc2ccccc2C(C)(C)C)cc1 [Example 246, 4′-(2-tert-butylphenoxy)-5-chloro-3′-(3-p-tolylureido) biphenyl-3-carboxylic acid]"
–,440,1250,"Cc1ccc(NC(=O)Nc2cc(-c3ccc(C(=O)O)c(Cl)c3)ccc2Oc2ccccc2C(C)(C)C)cc1 [Example 257, 4′-(2-tert-butylphenoxy)-3-chloro-3′-(3-p-tolylureido) biphenyl-4-carboxylic acid]"
–,520,810,O=C(Nc1ccc(Cl)cc1)Nc1cc(-c2ccccc2-c2nnn[nH]2)cc(CC2CC2)c1OC1CCOCC1 [Example 331]
–,380,16700,COc1ccc(-c2cnc(Oc3ccccc3C(C)(C)C)c(NC(=O)Nc3cccc(C)c3)c2)cc1C(=O)O [Example 334]
–,760,1110,COc1ccc(-c2cnc(Oc3ccccc3C(C)(C)C)c(NC(=O)Nc3ccccc3Cl)c2)cc1C(=O)O [Example 336]
